Among the data in ChEMBL document CHEMBL3997794, “Design and synthesis of benzodiazepine analogs as isoform-selective human lysine deacetylase inhibitors” (Eur J Med Chem, 2017) are IC50 and inhibition values, retold here.

For assay [1], the target named is T1, Histone deacetylase 8 (Homo sapiens, UniProt Q9BY41).
T1 sequence (Q9BY41 whole entry): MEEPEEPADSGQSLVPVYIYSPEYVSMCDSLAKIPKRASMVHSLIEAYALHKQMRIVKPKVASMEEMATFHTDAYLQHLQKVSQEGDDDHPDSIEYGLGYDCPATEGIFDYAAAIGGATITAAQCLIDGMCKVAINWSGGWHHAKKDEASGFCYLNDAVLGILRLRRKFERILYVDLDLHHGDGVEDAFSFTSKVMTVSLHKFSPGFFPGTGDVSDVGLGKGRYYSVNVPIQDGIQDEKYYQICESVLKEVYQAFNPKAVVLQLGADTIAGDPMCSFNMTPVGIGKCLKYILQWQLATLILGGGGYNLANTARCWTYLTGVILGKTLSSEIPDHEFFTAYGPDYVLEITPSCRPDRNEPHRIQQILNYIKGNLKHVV
Put plainly: Inhibition of human KDAC8 after 60 mins by fluorescence assay.

In assay [2] the target is T2, Histone deacetylase 3 (Homo sapiens, UniProt O15379). Put plainly: Inhibition of human KDAC3 using FITC-labeled p53 acetylated peptide as substrate after 60 mins by fluorescence assay.
T2 sequence (O15379 whole entry): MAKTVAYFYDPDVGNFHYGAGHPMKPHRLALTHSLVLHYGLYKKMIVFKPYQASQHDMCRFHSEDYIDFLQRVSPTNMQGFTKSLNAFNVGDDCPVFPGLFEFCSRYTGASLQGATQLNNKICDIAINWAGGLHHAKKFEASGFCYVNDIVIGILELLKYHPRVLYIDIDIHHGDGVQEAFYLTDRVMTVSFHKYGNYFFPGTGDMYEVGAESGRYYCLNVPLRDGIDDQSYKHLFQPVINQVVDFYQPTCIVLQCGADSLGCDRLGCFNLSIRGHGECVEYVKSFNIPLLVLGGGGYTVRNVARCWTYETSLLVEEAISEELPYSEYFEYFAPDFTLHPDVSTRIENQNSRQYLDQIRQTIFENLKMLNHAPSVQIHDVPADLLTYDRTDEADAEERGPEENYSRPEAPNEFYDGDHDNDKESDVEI
In assay [3] the target is T3, Protein deacetylase HDAC6 (Homo sapiens) (UniProt Q9UBN7).
T3 sequence (whole entry): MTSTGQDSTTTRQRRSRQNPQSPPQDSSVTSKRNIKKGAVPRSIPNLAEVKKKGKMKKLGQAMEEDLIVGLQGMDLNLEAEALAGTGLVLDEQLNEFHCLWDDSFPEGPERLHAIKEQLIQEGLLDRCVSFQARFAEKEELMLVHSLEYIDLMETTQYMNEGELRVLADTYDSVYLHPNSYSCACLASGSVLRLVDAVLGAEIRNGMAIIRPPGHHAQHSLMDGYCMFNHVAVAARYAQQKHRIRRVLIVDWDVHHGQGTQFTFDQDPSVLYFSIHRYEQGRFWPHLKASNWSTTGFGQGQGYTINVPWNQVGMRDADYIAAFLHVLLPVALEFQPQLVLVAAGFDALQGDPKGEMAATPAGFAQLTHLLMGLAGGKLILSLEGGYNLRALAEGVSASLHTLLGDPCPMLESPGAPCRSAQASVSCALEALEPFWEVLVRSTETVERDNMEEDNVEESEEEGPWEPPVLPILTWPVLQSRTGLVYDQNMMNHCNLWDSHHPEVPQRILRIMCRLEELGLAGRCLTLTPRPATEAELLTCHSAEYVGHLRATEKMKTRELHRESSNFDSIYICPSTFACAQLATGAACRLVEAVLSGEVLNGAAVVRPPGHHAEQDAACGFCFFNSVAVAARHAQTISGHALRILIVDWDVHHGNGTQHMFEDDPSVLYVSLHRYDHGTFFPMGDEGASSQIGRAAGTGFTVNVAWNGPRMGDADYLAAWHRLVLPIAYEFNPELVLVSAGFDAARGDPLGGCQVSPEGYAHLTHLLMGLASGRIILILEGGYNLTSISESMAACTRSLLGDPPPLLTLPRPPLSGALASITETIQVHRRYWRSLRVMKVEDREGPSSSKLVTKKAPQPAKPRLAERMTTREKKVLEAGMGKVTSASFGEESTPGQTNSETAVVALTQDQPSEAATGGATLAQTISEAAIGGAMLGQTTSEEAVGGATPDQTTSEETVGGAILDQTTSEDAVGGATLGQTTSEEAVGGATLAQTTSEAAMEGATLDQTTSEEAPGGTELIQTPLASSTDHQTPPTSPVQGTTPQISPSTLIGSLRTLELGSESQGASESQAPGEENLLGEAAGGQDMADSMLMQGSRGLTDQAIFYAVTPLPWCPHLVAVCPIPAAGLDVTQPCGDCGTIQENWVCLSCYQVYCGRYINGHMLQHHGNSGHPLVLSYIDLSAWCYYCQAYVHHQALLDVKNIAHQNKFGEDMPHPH
The settings on record: at 30 µM.
Description: Inhibition of human KDAC6 at 30 uM using FITC-labeled histone H4 acetylated peptide as substrate after 60 mins by fluorescence assay relative to control

Assay [4] has as its target T4, Histone deacetylase 1 (Homo sapiens, UniProt Q13547). Put plainly: Inhibition of human KDAC1 at 30 uM using substrate A after 60 mins by fluorescence assay relative to control.
Assay [5] concerns the target T5, Histone deacetylase 8 (Homo sapiens) (UniProt Q9BY41).
T5 sequence (whole entry): T1 sequence (Q9BY41 whole entry)
Put plainly: Inhibition of human KDAC8 at 30 uM after 60 mins by fluorescence assay relative to control.

Assay [6] concerns the target T2, Histone deacetylase 3. Put plainly: Inhibition of human KDAC3 at 30 uM using FITC-labeled p53 acetylated peptide as substrate after 60 mins by fluorescence assay relative to control.
The target of assay [7] is T6, Protein deacetylase HDAC6 (Homo sapiens, UniProt Q9UBN7).
T6 sequence (Q9UBN7 whole entry): T3 sequence (whole entry)
The assay can be described thus: Inhibition of human KDAC6 using FITC-labeled histone H4 acetylated peptide as substrate after 60 mins by fluorescence assay.

The target of assay [8] is T4, Histone deacetylase 1. The assay can be described thus: Inhibition of human KDAC1 using substrate A after 60 mins by fluorescence assay.

The structures appear in SMILES notation.

T4 sequence (Q13547 whole entry): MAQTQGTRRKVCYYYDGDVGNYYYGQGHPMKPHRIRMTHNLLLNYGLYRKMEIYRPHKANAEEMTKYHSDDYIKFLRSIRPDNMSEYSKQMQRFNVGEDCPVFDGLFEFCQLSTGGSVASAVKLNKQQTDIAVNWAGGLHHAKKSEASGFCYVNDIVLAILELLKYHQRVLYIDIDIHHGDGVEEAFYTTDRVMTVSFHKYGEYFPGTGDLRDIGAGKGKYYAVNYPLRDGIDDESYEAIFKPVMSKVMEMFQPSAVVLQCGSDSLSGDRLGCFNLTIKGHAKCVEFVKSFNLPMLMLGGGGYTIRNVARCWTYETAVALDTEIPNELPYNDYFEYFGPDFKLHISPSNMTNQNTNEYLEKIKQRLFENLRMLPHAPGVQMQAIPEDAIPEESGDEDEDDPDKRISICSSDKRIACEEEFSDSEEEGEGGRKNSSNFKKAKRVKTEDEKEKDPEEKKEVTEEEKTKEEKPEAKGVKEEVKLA

In general, IC50 refers to the concentration at which inhibition is half-maximal. A higher IC50 goes with weaker potency. The inhibition is the percentage by which the read-out fell short of the control. High values mean a response far below the control, low ones a response near the control. As to `NCCCC[C@@H]1N=C(c2ccccc2)c2ccccc2N(CCCCC(=O)NO)C1=O`, the IC50 in assay [1] was above 30 µM; in assay [2], 0.95 µM; in assay [7], 12.1 µM; in assay [8], 6.54 µM. The inhibition was determined as 73.4% in assay [3], 79.5% in assay [4], 7.7% in assay [5] and 99.1% in assay [6].

On to `C[C@@H]1N=C(c2ccccc2)c2ccccc2NC1=O`, for which the IC50 in assay [1], in assay [2], in assay [7] and in assay [8] was above 30 µM throughout. Also, the inhibition is 0% in assay [3], 7.49% in assay [4], 0% in assay [5] and 0% in assay [6].

As for `Cc1c(C)c(S(=O)(=O)NC(=N)NCCC[C@@H]2N=C(c3ccccc3)c3ccccc3N(CCCCC(=O)NO)C2=O)c(C)c2c1OC(C)(C)C2`, the concentration for half-maximal inhibition (IC50) was above 30 µM in assay [1], 4.29 µM in assay [2], 16.2 µM in assay [7] and above 30 µM in assay [8]. In addition, the inhibition in assay [3] came out at 70.2%; in assay [4], 39.1%; in assay [5], 22.6%; in assay [6], 94.6%.

For the molecule `CC(C)(C)OC(=O)NCCCC[C@@H]1N=C(c2ccccc2)c2ccccc2N(CCCCC(=O)NO)C1=O`, the IC50 in assay [1] was 21.8 µM; in assay [2] it was 0.59 µM; in assay [7], 3.06 µM; in assay [8], 4.63 µM. The inhibition in assay [3] came out at 89.9%; in assay [4], 84.4%; in assay [5], 56%; in assay [6], 98.8%.

As to `CSCC[C@@H]1N=C(c2ccccc2)c2ccccc2NC1=O`, the half-inhibitory concentration (IC50) in assay [1], in assay [2], in assay [7] and in assay [8] was above 30 µM each time. The inhibition was 2.62% in assay [3], 0% in assay [4], 9.07% in assay [5] and 0% in assay [6].

Turning to `O=C(CC[C@H]1N=C(c2ccccc2)c2ccccc2NC1=O)NO`, the 50% inhibitory concentration (IC50) in assay [1], in assay [2], in assay [7] and in assay [8] was above 30 µM in each case. Besides, the inhibition came to 19% in assay [3], 28% in assay [4], 9.02% in assay [5] and 29.4% in assay [6].

Take `COC(=O)CCCCN1C(=O)[C@H](Cc2cncn2C(c2ccccc2)(c2ccccc2)c2ccccc2)N=C(c2ccccc2)c2ccccc21`: the IC50 in assay [1], in assay [2], in assay [7] and in assay [8] was above 30 µM throughout. Further, the inhibition in assay [3] is 5.33%; in assay [4], 4.66%; in assay [5], 12.1%; in assay [6], 0%.

For the molecule `O=C(O)CCCCN1C(=O)[C@H](CC(=O)NC(c2ccccc2)(c2ccccc2)c2ccccc2)N=C(c2ccccc2)c2ccccc21`, the IC50 in assay [1], in assay [2] and in assay [8] was above 30 µM throughout. The inhibition in assay [4] is 8.49%; in assay [5] it was 11.4%; in assay [6], 7.32%.

Take `Cc1c(C)c(S(=O)(=O)NC(=N)NCCC[C@@H]2N=C(c3ccccc3)c3ccccc3N(CCCCC(=O)O)C2=O)c(C)c2c1OC(C)(C)C2`: the IC50 in assay [1], in assay [2] and in assay [8] was above 30 µM in each case. Moreover, the inhibition came to 4.96% in assay [4], 10.2% in assay [5] and 3.8% in assay [6].

For the molecule `O=C(CCCCN1C(=O)[C@H](CC(=O)NC(c2ccccc2)(c2ccccc2)c2ccccc2)N=C(c2ccccc2)c2ccccc21)NO`, the IC50 in assay [1] was above 30 µM; in assay [2] it was 4.31 µM; in assay [8], above 30 µM. In addition, the inhibition in assay [4] was found to be 43.1%; in assay [5], 43.9%; in assay [6], 89.5%.

Turning to `COC(=O)CCCCN1C(=O)[C@H](CCC(=O)NC(c2ccccc2)(c2ccccc2)c2ccccc2)N=C(c2ccccc2)c2ccccc21`, the IC50 in assay [1], in assay [2] and in assay [8] was above 30 µM in each case. Moreover, the inhibition in assay [4] was 7.24%; in assay [5] it was 0%; in assay [6], 0%.

`O=C(CCCCN1C(=O)[C@H](CCC(=O)NC(c2ccccc2)(c2ccccc2)c2ccccc2)N=C(c2ccccc2)c2ccccc21)NO`: the figures for the IC50 in assay [1], in assay [2] and in assay [8] were 23.5 µM, 0.83 µM and 9.24 µM, respectively. For the same molecule, the inhibition in assay [4] was determined as 78.7%; in assay [5], 53.1%; in assay [6], 99.1%.

With `N[C@H](Cc1ccc(Cl)cc1Cl)C(=O)N1Cc2ccccc2C1`, the IC50 was 1.09 µM in assay [1], 20 µM in assay [2], above 30 µM in assay [7] and 27.4 µM in assay [8].

In the case of `O=C(CCCCN1C(=O)[C@H](CCC(=O)NO)N=C(c2ccccc2)c2ccccc21)NO`, the IC50 in assay [1] came out at 8.52 µM; in assay [2], 2.57 µM; in assay [8], 15 µM. Besides, the inhibition worked out at 62.5% in assay [4], 74.7% in assay [5] and 92.2% in assay [6].

On to `O=C(O)CCCCN1C(=O)[C@H](CCC(=O)NC(c2ccccc2)(c2ccccc2)c2ccccc2)N=C(c2ccccc2)c2ccccc21`, for which the concentration for half-maximal inhibition (IC50) in assay [1] and in assay [8] was above 30 µM each time. For the same molecule, the inhibition in assay [4] came out at 3.58%; in assay [5], 11%; in assay [6] it was 0%.

Take `O=C(O)CCCCN1C(=O)[C@H](CCC(=O)O)N=C(c2ccccc2)c2ccccc21`: the IC50 in assay [1], in assay [2] and in assay [8] was above 30 µM each time. For the same molecule, the inhibition in assay [4] was 13.6%; in assay [5], 6.92%; in assay [6], 1.47%.

On to `COC(=O)CCCCN1C(=O)[C@H](CC(=O)NC(c2ccccc2)(c2ccccc2)c2ccccc2)N=C(c2ccccc2)c2ccccc21`, for which the IC50 in assay [1], in assay [2] and in assay [8] was above 30 µM throughout. In addition, the inhibition in assay [4] is 8.7%; in assay [5] it was 3.62%; in assay [6], 5.6%.

For the molecule `O=C(O)CCCCN1C(=O)[C@H](Cc2cncn2C(c2ccccc2)(c2ccccc2)c2ccccc2)N=C(c2ccccc2)c2ccccc21`, the IC50 in assay [1], in assay [2] and in assay [8] was above 30 µM throughout. The inhibition was 7.49% in assay [4], 10.4% in assay [5] and 0% in assay [6].

Consider `O=C(O)CC[C@@H]1N=C(c2ccccc2)c2ccccc2N(CCCCC(=O)NO)C1=O`, for which the values for the IC50 in assay [1], in assay [2] and in assay [8] were above 30 µM, 8.71 µM and above 30 µM, respectively. Also, the inhibition in assay [4] worked out at 48.1%; in assay [5] it was 29.7%; in assay [6], 79.8%.

As for `COC(=O)CCCCN1C(=O)[C@H](CCCNC(=N)NS(=O)(=O)c2c(C)c(C)c3c(c2C)CC(C)(C)O3)N=C(c2ccccc2)c2ccccc21`, the IC50 in assay [1], in assay [2] and in assay [8] was above 30 µM throughout. For the same molecule, the results for the inhibition in assay [4], in assay [5] and in assay [6] were 4.8%, 7.3% and 3.33%, respectively.
